From patent US20240358693A1, “METHODS OF TREATING PAIN” (Aisa Pharma, Inc., priority 2023, published 2024)

System: participants with SSc-RP
Assay: Frequency of weekly RP attacks (all attacks; primary efficacy endpoint)
Type: in vivo, human
Description: Percent change from baseline evaluation for frequency of weekly RP attacks were or will be used as the primary efficacy variable. The sponsor-developed participant-informed diary will be used to record data. Frequency of weekly RP attacks is defined as the total number of RP attacks divided by the number of days with available diary data within the last 7 days of each dosing period then multiplied by 7. Total number of RP attacks during the last 7 days of screening period divided by the number of days with available data then multiplied by 7 will be used as baseline for the analysis of all periods. The variable will be calculated as follows:
Percentage change={(weekly RP attacks for the last 7 days of each dosing period−Baseline weekly RP attacks)/Baseline weekly RP attacks}*100%.
Absolute change=weekly RP attacks for the last 7 days of each dosing period−Baseline weekly RP attacks
Percent change from baseline evaluation for frequency of weekly RP attacks was and will be the primary efficacy endpoint. Frequency of weekly RP attacks is defined as the total number of RP attacks divided by the number of days with available diary data within the last 7 days of each dosing period then multiplied by 7. Total number of RP attacks during the last 7 days of screening period divided by the number of days with available data then multiplied by 7 will be used as baseline for the analysis of all periods.
Percent change from baseline evaluation for frequency of weekly RP attacks were the primary efficacy endpoint. Data collected in the last 7 days of each dosing period were used for this analysis. Screening assessments were used as baseline for the analysis of all periods. No multiple comparison adjustment were used to control alpha for the multiple comparisons. Mixed effects model were used for analysis of the primary endpoint according to the crossover design. Other efficacy endpoints of continuous variables were analyzed using similar methodology. For nominal data, chi-square tests were applied. Generalized Estimating Equations method were used, as appropriate, for adjusting for potential confounding factors. In addition, the final analysis assessed whether in this study of severe Raynaud's disease participants, the minimally important difference, previously concluded of 14-15 points on the 100 point RCS scale had been achieved in the cilnidipine dose group. It also recorded the percentage of participants achieving a PASS (34 point difference from baseline on a 0-100 VAS) in each treatment group.

[1] = Tadalafil 5 mg, n=1, Excluding Outliers, by Baseline RCS, second subgroup, ITT Part A
[2] = all attacks, excluding outliers, cilnidipine 10 mg, tadalafil 5 mg daily
[3] = all attacks, by baseline RCS, second subgroup, cilnidipine 10 mg, tadalafil 5 mg daily
[4] = all attacks, cilnidipine 10 mg, tadalafil 5 mg daily

## CN1CC(=O)N2[C@H](c3ccc4c(c3)OCO4)c3[nH]c4ccccc4c3C[C@@H]2C1=O [Tadalafil, tadalafil]
[1]
  Weekly RP Attacks (All Attacks) Change from Baseline, Mean: 6.00
  Weekly RP Attacks (All Attacks) Change from Baseline, Median: 6.00
  Weekly RP Attacks (All Attacks) Percent Change from Baseline, Mean: 46.15%
  Weekly RP Attacks (All Attacks) Percent Change from Baseline, Median: 46.15%
  Weekly RP Attacks (All Attacks), Mean: 19.00
  Weekly RP Attacks (All Attacks), Median: 19.00
[2]
  Weekly RP Attacks Change from Baseline, Max: 6.0, 6.0
  Weekly RP Attacks Change from Baseline, Mean (SD): 6.00
  Weekly RP Attacks Change from Baseline, Median: 6.00
  Weekly RP Attacks Change from Baseline, Min: 6.0, 6.0
  Weekly RP Attacks Change from Baseline, Q1: 6.00, 6.00
  Weekly RP Attacks Change from Baseline, Q3: 6.00, 6.00
  Weekly RP Attacks Percent Change from Baseline, Max: 46.2, 46.2%
  Weekly RP Attacks Percent Change from Baseline, Mean (SD): 46.15%
  Weekly RP Attacks Percent Change from Baseline, Median: 46.15%
  Weekly RP Attacks Percent Change from Baseline, Min: 46.2, 46.2%
  Weekly RP Attacks Percent Change from Baseline, Q1: 46.15, 46.15%
  Weekly RP Attacks Percent Change from Baseline, Q3: 46.15, 46.15%
  Weekly RP Attacks, Max: 19.0, 19.0
  Weekly RP Attacks, Mean (SD): 19.00
  Weekly RP Attacks, Median: 19.00
  Weekly RP Attacks, Min: 19.0, 19.0
  Weekly RP Attacks, Q1: 19.00, 19.00
  Weekly RP Attacks, Q3: 19.00, 19.00
[3]
  Weekly RP Attacks Change from Baseline, Max: 6.0
  Weekly RP Attacks Change from Baseline, Mean: 3.00
  Weekly RP Attacks Change from Baseline, Median: 3.00
  Weekly RP Attacks Change from Baseline, Min: 0.0
  Weekly RP Attacks Change from Baseline, Q1: 0.00
  Weekly RP Attacks Change from Baseline, Q3: 6.00
  Weekly RP Attacks Percent Change from Baseline, Max: 46.2%
  Weekly RP Attacks Percent Change from Baseline, Mean: 23.08%
  Weekly RP Attacks Percent Change from Baseline, Median: 23.08%
  Weekly RP Attacks Percent Change from Baseline, Min: 0.0%
  Weekly RP Attacks Percent Change from Baseline, Q1: 0.00%
  Weekly RP Attacks Percent Change from Baseline, Q3: 46.15%
  Weekly RP Attacks, Max: 19.0
  Weekly RP Attacks, Mean: 13.00
  Weekly RP Attacks, Median: 13.00
  Weekly RP Attacks, Min: 7.0
  Weekly RP Attacks, Q1: 7.00
  Weekly RP Attacks, Q3: 19.00
[4]
  Weekly RP Attacks Change from Baseline, Max: 6.0
  Weekly RP Attacks Change from Baseline, Mean (SD): 3.00 (4.243)
  Weekly RP Attacks Change from Baseline, Median: 3.00
  Weekly RP Attacks Change from Baseline, Min: 0.0
  Weekly RP Attacks Change from Baseline, Q1: 0.00
  Weekly RP Attacks Change from Baseline, Q3: 6.00
  Weekly RP Attacks Percent Change from Baseline, Max: 46.2%
  Weekly RP Attacks Percent Change from Baseline, Mean (SD): 23.08 (32.636) Percent
  Weekly RP Attacks Percent Change from Baseline, Median: 23.08%
  Weekly RP Attacks Percent Change from Baseline, Min: 0.0%
  Weekly RP Attacks Percent Change from Baseline, Q1: 0.00%
  Weekly RP Attacks Percent Change from Baseline, Q3: 46.15%
  Weekly RP Attacks, Max: 19.0
  Weekly RP Attacks, Mean (SD): 13.00 (8.485)
  Weekly RP Attacks, Median: 13.00
  Weekly RP Attacks, Min: 7.0
  Weekly RP Attacks, Q1: 7.00
  Weekly RP Attacks, Q3: 19.00
